In patent publication US9321808B2, “Homo- and heterodimeric SMAC mimetic compounds as apoptosis inducers” (BioNTech AG, priority 2012, dated 2016):
One block for each molecule: values may come before it.

Legend:
cIAP1-BIR3 = molecular target: T1, cIAP1-BIR3 (Homo sapiens, UniProt Q13490); test: Fluorescence polarization binding, cIAP1 BIR3; conditions: displacement of fluorescent probe (2 nM) from cIAP1-BIR3 (10 nM); average of three independent measurements; read-out: cIAP1 IC50(av)
T1 construct: 6xHis (C); made in house; host or cells: Escherichia coli BL21(DE3)
T1 sequence (Q13490 251-363): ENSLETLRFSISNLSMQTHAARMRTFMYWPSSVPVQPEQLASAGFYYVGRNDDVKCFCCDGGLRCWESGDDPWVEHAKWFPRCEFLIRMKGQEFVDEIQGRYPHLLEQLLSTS
Description: (§1) The plasmids were used to transform Escherichia coli strain BL21(DE3). The recombinant proteins were purified using Ni-NTA (His-trap FFcrude, Ge-Healthcare), followed by gel filtration (Superdex 200, Ge-Healthcare). The recombinant proteins were eluted in 20 mM Tris pH 8.0, 250 mM NaCl and 10 mM DTT. Aliquoted proteins were conserved at −80° C.
(§2) The fluorescently-labelled Smac peptide (AbuRPF-K(5-Fam)-N1-12, final concentration of 2 nM), and increasing concentrations of cIAP1- and cIAP2-BIR3 from 0 to 20 μM, were added to an assay buffer consisting of 100 mM potassium phosphate, pH 7.5, 100 μg/ml bovine γ-globulin, 0.02% sodium azide. […] All experiments were performed in black, flat-bottom 96-well microplates (Greiner bio-one). 4-substituted azabicyclo[5.3.0]alkane Smac-mimetics were evaluated for their ability to displace the fluorescent probe from recombinant protein. […] After 15 minutes mixing on a shaker, and 3 hours incubation at room temperature, fluorescent polarization was measured on the Ultra plate reader (Tecan).

[1] = molecular target: T2, human XIAP linker-BIR2-BIR3 (Homo sapiens, UniProt P98170); test: Fluorescence polarization competitive binding, XIAP linker-BIR2-BIR3; conditions: displacement of SMAC-1F probe (1 nM) from XIAP linker-BIR2-BIR3-His-tag (3 nM); average of three independent measurements
T2 construct: human XIAP from residue 124 to 356 (linker-BIR2-BIR3); made in house; host or cells: Escherichia coli BL21
T2 sequence (P98170 124-356): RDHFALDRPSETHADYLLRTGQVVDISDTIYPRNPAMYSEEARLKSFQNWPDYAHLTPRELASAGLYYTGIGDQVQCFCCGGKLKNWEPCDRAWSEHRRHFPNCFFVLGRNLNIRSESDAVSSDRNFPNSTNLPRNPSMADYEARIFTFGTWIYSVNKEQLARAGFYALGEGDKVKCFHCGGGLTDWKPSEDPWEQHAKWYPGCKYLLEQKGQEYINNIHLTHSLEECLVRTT
Description: (§3) Data were analyzed using Prism 4.0 software (Graphpad Software).

cIAP2-BIR3 = molecular target: T3, cIAP2-BIR3 (Homo sapiens, UniProt Q13489); test: Fluorescence polarization binding, cIAP2 BIR3; conditions: displacement of fluorescent probe (2 nM) from cIAP2 (25 nM); average of three independent measurements; read-out: cIAP2 IC50(av)
T3 construct: 6xHis (C); made in house; host or cells: Escherichia coli BL21(DE3)
T3 sequence (Q13489 237-349): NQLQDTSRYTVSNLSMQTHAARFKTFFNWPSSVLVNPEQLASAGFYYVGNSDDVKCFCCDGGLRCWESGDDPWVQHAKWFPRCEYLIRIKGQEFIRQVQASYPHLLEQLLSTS
Description: as §1, §2

human XIAP BIR3 domain = molecular target: T4, human XIAP BIR3 domain (Homo sapiens, UniProt P98170); test: Fluorescence polarization competitive binding, XIAP BIR3; conditions: displacement of FITC-SMAC probe from XIAP BIR3-His-tag (60 nM); average of three independent measurements
T4 construct: human XIAP BIR3 domain from residue 241 to 356; made in house; host or cells: Escherichia coli BL21
T4 sequence (P98170 241-356): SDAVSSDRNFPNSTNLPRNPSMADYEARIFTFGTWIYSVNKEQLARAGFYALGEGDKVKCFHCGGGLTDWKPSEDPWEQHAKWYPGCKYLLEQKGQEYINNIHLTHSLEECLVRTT
Description: as §3

[2] = test system: MDA-MB-231 (breast epithelial adenocarcinoma); test: Standalone cytotoxicity, MTT assay, MDA-MB-231; format: cell-based, human; conditions: Homo sapiens, MDA-MB-231, 96 hours treatment, reported as activity range, read-out: MDA-MB-231 IC50 (μM ± standard Deviation)
Description: Human cell lines MDA-MB-231 (breast epithelial adenocarcinoma), HL-60 (promieloblast cells) and PC-3 (prostate adenocarcinoma cells) were purchased from Istituto Zooprofilattico di Brescia (www.bs.izs.it). Reagents for cell culture were purchased from Sigma, unless otherwise indicated. Cells were grown on Plastic Petri dishes (Falcon) in RPMI 1640 medium supplemented with 2 mM L-glutamine, Penicillin (100 U/mL)/Streptomicin (100 μg/mL), 10% Fetal Bovine Serum. A sub-cultivation ratio of 1:4 was used. Cells were maintained at 37° C. in an atmosphere of 95% air and 5% CO2.
Cells were seeded in 96-well flat bottom cell culture plates at a density of 5000 cells/well in 100 μL of culture medium. HL-60 cells were immediately stimulated with the indicated compounds for 96 hours in the incubator. MDA-MB-231 and PC-3 cells were allowed to adhere for 24 hours. prior to be exposed to the compounds for 96 hours in the incubator. Cells were exposed to the following concentrations of the compounds: 50 nM, 100 nM, 200 nM, 500 nM, 1 μM, 5 μM, 10 μM, 50 μM and 100 μM. Each point was done in triplicate. The cellular growth inhibitory effect of our compounds was evaluated using the MTT assay (Sigma). After 96 hours of treatment, 10 μL of MTT reagent solution (5 mg of MTT powder/mL diluted in Phosphate Buffer Salt saline solution) were added in each well and allowed to react for 3 hours in the incubator. After 3 hours cells were solubilized in Lysis Buffer (10% SDS/0.1% HCl in water, 100 μL for each well) for 24 hours at 37° C. Finally, the absorbance was measured at 570 nm using a multiplate reader. Absorbance values were collected and IC50 values were determined using GraphPad Prism5 software. The experiments were repeated twice.
After 96 hours of treatment, 10 μl of MTT reagent solution (5 mg of MTT powder/ml diluted in Phosphate Buffer Salt saline solution) were added in each well and allowed to react for 3 hours in the incubator. After 3 hours cells were solubilized in Lysis Buffer (10% SDS/0.1% HCl in water, 100 μl for each well) for 24 hours at 37° C. Finally, the absorbance was measured at 570 nm using a multiplate reader. Absorbance values were collected and IC50/IC80 values were determined using GraphPad Prism5 software.

XIAP = XIAP (Homo sapiens, UniProt P98170); conditions: technical background; read-out: Kd, binding to XIAP; cited from earlier work
Sequence of XIAP (P98170 whole entry): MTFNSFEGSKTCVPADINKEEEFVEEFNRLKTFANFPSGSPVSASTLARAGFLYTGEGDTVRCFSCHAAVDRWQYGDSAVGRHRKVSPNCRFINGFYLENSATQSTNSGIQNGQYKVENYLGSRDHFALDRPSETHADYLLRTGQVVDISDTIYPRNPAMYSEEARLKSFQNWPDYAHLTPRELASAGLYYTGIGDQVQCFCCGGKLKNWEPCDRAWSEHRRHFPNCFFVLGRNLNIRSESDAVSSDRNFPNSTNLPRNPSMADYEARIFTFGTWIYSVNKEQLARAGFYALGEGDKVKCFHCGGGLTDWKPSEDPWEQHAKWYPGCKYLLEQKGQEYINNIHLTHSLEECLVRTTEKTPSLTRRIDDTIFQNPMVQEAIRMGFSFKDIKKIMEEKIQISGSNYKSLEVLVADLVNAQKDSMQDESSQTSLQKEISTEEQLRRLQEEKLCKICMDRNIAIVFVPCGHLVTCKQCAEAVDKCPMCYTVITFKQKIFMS

- IC50 (cIAP1-BIR3): 3.2 nM
- IC50 [1]: 0.11 nM
- IC50 (cIAP2-BIR3): 0.3 nM
- IC50 (human XIAP BIR3 domain): 31.1 nM
Molecule: CC[C@H](NC)C(=O)N[C@@H]1C(=O)N2[C@@H](CC[C@@H]1CNC(=O)CCc1cn(CCOCCOCCOCCNC(=O)[C@@H](NC(=O)[C@@H]3CC[C@@H]4CC[C@H](CO)[C@H](NC(=O)[C@H](CC)NC)C(=O)N43)c3ccccc3)nn1)CC[C@H]2C(=O)NC(c1ccccc1)c1ccccc1 [Compound 34a]
- IC50 [2]: 10 to 50 µM

B1: mature Smac protein: "second mitochondria-derived activator of caspases"; "N-terminal mitochondrial targeting sequence that is proteolytically removed during maturation to the mature polipeptide" (protein, UniProt Q9NR28 22-239, looked up)
Diablo IAP-binding …: LCVPVVANFKKRCFSELIRPWHKTVTIGFGVTLCAVPIAQKSEPHSLSSEALMRRAVSLVTDSTSTFLSQTTYALIEAITEYTKAVYTLTSLYRQYTSLLGKMNSEEEDEVWQVIIGARAEMTSKHQEYLKLETTWMTAVGLSEMAAEAAYQTGADQASITARNHIQLVKLQVEEVHQLSRKAETKLAEAQIEELRQKTQEEGEERAESEQEAYLRED
- Kd (XIAP): 420 nM
